From EP0263968A2, “Use of opiate antagonists in the manufacture of agents for the diagnosis and therapy of hypothalamic function disorders” (Ferring Arzneimittel GmbH, priority 1986, dated 1988)

How the values were obtained:
[1] = test system: Gonadotropine; assay: Diagnostic test: intravenous naloxone in secondary and primary amenorrhoea; format: in vivo
Source text: Somit zeigt dieser diagnostische Test, daß bei den Fällen von sekundärer Amenorrhoe die Suppression der Gonadotropine im Serum auf einer erhöhten endogenen Opiataktivität beruht, die therapeutisch durch den längerfristigen Einsatz von Antagonisten gedämpft werden kann.

[2] = test system: Patientinnen mit hypothalamischer Amenorrhoe; assay: Continuous naloxone infusion in patients with hypothalamic amenorrhoea; format: in vivo; conditions: duration 6 to 52 hours
Source text: Im Rahmen der vorliegenden Erfindung wurden Untersuchungen an Patientinnen mit hypothalamischer Amenorrhoe durchgeführt. Diese Untersuchungen haben überraschenderweise gezeigt, daß durch die Gabe von Opiat-Antagonisten eine Zunahme von Frequenz und Amplitude der LH und FSH Sekretion erreicht wird. Es kann daher davon ausgegangen werden, daß die endogene GnRH Sekretion durch Opiat-Antagonisten vermehrt wird.
Beispielsweise wurde Naloxon bei Patientinnen mit hypothalamischer Amenorrhoe infundiert. Die Infusionsdauer betrug 6 bis 52 Stunden.

[3] = oral administration possible; cited from earlier work
[4] = test system: Patientinnen mit hypothalamischer Amenorrhoe; assay: Oral naltrexone treatment of patients with hypothalamic amenorrhoea (serial blood sampling, ultrasound); format: in vivo
Description: Die basale Gonadotropin Sekretion von Patientinnen, die an hypothalamischer Amenorrhoe litten, wurde durch Bestimmung von LH und FSH, Prolactin und Ovarien-Steroiden in Blutproben bewertet, die alle zehn Minuten während 24 Stunden entnommen wurden. Naltrexon wurde dann in einer Dosis von 50 mg pro Tag während 24 oder 28 Tagen verabreicht. 5 Tage und 14 Tage nach dem Beginn der Naltrexonverabreichung wurden wiederholte Blutproben entnommen. An den übrigen Tagen wurden täglich Blutproben entnommen und es wurde eine Ultraschalluntersuchung nach der Naltrexonverabreichung sowie einige Tage danach durchgeführt. Es wurden folgende Ergebnisse ermittelt:
Auf die Verabreichung von Naltrexon folgte eine Zunahme der Frequenz und der Amplitude der pulsatielen Gonadotropin Sekretion sowie eine Zunahme der mittleren LH und FSH Serumkonzentration sowie der Entwicklung der Gonaden-Steroid Sekretion und der Follikel, was durch Ultraschall festgestellt wurde.

[5] = test system: Patientinnen mit normalem Zyklus; assay: Naltrexone administration to patients with normal cycle; format: in vivo
Source text: Es ergibt sich daher die Möglichkeit, Opiat-Antagonisten zur Diagnose und Therapie hypothalamischer Funktionsstörungen einzusetzen, insbesondere bei solchen, bei denen zu vermuten ist, daß eine Hemmung der entsprechenden Partialfunktion durch vermehrt gebildete Endorphine verursacht ist.

[6] = 50 mg per day for 24 or 28 days
[7] = patients with hypothalamic amenorrhoea

## C=CCN1CC[C@]23c4c5ccc(O)c4OC2C(=O)CC[C@@]3(O)[C@H]1C5 (some centres unmarked) [Naloxon, 17-Allyl-4,5-epoxy-3,14-dihydroxymorphinan-6-on]
[1]; some cases of primary amenorrhoea
  Anstieg der Gonadotropine: nicht oder nur in wesentlich geringerem Ausmaß
[1]; some cases of secondary amenorrhoea
  Anstieg der Gonadotropine: deutlichen Anstieg
[2]
  Frequenz und Amplitude der LH und FSH Sekretion: deutliche Zunahme

## O=C1CC[C@@]2(O)[C@H]3Cc4ccc(O)c5c4[C@@]2(CCN3CC2CC2)C1O5 (some centres unmarked) [Naltrexon, 17-(Cyclopropylmethyl)-4,5-epoxy-3,14-dihydroxymorphinan-6-on]
[3]
  Verweildauer im Plasma: lange Verweildauer im Plasma
[4]; [6]
  Frequenz und Amplitude der pulsatielen Gonadotropin Sekretion: Zunahme
  mittlere LH und FSH Serumkonzentration: Zunahme
[4]; 50 mg per day for 24 or 28 days, 3 patients
  Patientinnen, die ovulierten: Eine von 3
[4]; 50 mg per day for 24 or 28 days, after withdrawal
  Menstruation nach Absetzen des Mittels: Sämtliche Patientinnen menstruierten
[4]; 50 mg per day for 24 or 28 days, follicles by ultrasound
  Entwicklung der Gonaden-Steroid Sekretion und der Follikel: Zunahme
[4]; oral, patients with hypothalamic amenorrhoea
  menstrueller Zyklus: Normalisierung
[4]; [7]
  Gonadotropin-Sekretion: Normalisierung
  Ovulation, Bildung eines Corpus luteum: zur Ovulation und zur Bildung eines Corpus luteum
[5]
  Ablauf des Zyklus: keinen Einfluß
  Sekretion der gonadotropen Hormone: keinen Einfluß
